Data published in patent publication US20070293398A1, “Method for Controlling Coniferous Plants” (BASF Aktiengesellschaft, priority 2004, published 2007).

Legend:
[1] = test system: wildling pine of the variety Loblolly (Pinus taeda); experiment: Field experiment Site 4: wildling Loblolly pine control, damage rating 0 to 100%; type: in vivo; details: field Site 4, combined with phenyluracil I.1.4
Method: The evaluation for the damage caused by the chemical compositions was carried out using a scale from 0 to 100%, compared to the untreated control plants. Here, 0 means no damage and 100 means complete destruction of the plants.

[2] = test system: pine species (loblolly pine); experiment: Field experiment Site 2: percent brownout of pine species following May application; type: in vivo, Pinus taeda; details: Site 2, May application, 0.840 kg a.i./ha, 1 WAT
Method: For the following experiment the phenyluracil of formula I and optionally the herbicide B were applied as an aqueous spray liquor. Phenyluracil I.1.4 (phenyluracil of formula I) was used as emulsifiable concentrate (0.120 kg a.i./L). Imazapyr (herbicide B) was used as an emulsifiable concentrate (26.7% by weight; Chopper®/BASF Corporation). Glyphosate (herbicide B) was used as a soluble concentrate (53.8% by weight; Accord® Concentrate/Dow AgroScience) Methylated seed oil (MSO) was also added to the spray liquor in amounts of 25.0% volume/volume as a standard spray adjuvant. Water was used as the carrier. Spray carrier volume was 65 L/ha.
The spray liquor had the following general recipe (based on a spray volume of 65 L/ha):
Herbicide treatments were applied in the spring using a pole sprayer with a single KLC-9 flood tip spraying from a height of 335 cm. This application technique was used to simulate operational aerial applications as closely as practical. Treatment plots were 9×18 m.
Woody vegetation was assessed at treatment and in the fall of the year of treatment and one year after treatment (one and two growing seasons after treatment). The most common woody species on the site at treatment included loblolly pine (Pinus taeda), southern red oak (Quercus falcata), water oak (Quercus nigra) and Vaccinium spp. […]

Row | SMILES | effect of addition on control of wildling pine (in words) [1] | brownout of pine species [2] [%]
1 | COc1c(Cl)ccc(Cl)c1C(=O)O [dicamba] | improved the control | –
2 | CC(C)C1(C)N=C(c2ncccc2C(=O)O)NC1=O (centres unmarked) [imazapyr] | – | 2
